The text below walks through data of patent US20240092758A1, “IMIDAZOLO INDAZOLE COMPOUNDS AS JAK INHIBITORS” (Theravance Biopharma R&D IP, LLC, priority 2021, published 2024).

Assay [1] deals with JAK2 (Homo sapiens (Human), UniProt O60674). Put plainly: Biochemical JAK kinase assay (LanthaScreen), JAK2. Conditions: for Ki: read-out: JAK2 pKi (converted). The method, boiled down:
(§1)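 LanthaScreen format: phospho-STAT1 (pTyr701) detected with 2 nM Tb antibody after 10 mM EDTA quench. Kinase step used Km-level ATP and 200 nM STAT1 peptide, 1 h at ambient after 1 h pre-incubation. Inhibition fitted to IC50, reported as pKi.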
(In general: Time-resolved FRET reads energy transfer from a long-lived donor to a nearby acceptor.)

Assay [2] concerns the target JAK1 (Homo sapiens (Human), UniProt P23458). Put plainly: Biochemical JAK kinase assay (LanthaScreen), JAK1. Conditions: for Ki: read-out: JAK1 pKi (converted). An outline of the steps:
as §1

In assay [3] the test system is IL-13 induced STAT6 phosphorylation in BEAS-2B human lung epithelial cells. Put plainly: Cellular JAKI potency assay (BEAS-2B). It counts as cell-based. The settings on record: Homo sapiens, BEAS-2B, BEAS-2B cells, read-out: BEAS2B pIC50 (converted). The method, boiled down: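 AlphaLISA SureFire detection of Tyr641 pSTAT6 in lysates gave IC50s (4-parameter fit, expressed as pIC50). Cells: human BEAS-2B, exposed 1 h at 37 °C to compound dose series at 0.1% DMSO, then 30 min to IL-13 added at 80 ng/mL in HEPES-buffered HBSS with BSA.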

Sequence of JAK2 (O60674 whole entry): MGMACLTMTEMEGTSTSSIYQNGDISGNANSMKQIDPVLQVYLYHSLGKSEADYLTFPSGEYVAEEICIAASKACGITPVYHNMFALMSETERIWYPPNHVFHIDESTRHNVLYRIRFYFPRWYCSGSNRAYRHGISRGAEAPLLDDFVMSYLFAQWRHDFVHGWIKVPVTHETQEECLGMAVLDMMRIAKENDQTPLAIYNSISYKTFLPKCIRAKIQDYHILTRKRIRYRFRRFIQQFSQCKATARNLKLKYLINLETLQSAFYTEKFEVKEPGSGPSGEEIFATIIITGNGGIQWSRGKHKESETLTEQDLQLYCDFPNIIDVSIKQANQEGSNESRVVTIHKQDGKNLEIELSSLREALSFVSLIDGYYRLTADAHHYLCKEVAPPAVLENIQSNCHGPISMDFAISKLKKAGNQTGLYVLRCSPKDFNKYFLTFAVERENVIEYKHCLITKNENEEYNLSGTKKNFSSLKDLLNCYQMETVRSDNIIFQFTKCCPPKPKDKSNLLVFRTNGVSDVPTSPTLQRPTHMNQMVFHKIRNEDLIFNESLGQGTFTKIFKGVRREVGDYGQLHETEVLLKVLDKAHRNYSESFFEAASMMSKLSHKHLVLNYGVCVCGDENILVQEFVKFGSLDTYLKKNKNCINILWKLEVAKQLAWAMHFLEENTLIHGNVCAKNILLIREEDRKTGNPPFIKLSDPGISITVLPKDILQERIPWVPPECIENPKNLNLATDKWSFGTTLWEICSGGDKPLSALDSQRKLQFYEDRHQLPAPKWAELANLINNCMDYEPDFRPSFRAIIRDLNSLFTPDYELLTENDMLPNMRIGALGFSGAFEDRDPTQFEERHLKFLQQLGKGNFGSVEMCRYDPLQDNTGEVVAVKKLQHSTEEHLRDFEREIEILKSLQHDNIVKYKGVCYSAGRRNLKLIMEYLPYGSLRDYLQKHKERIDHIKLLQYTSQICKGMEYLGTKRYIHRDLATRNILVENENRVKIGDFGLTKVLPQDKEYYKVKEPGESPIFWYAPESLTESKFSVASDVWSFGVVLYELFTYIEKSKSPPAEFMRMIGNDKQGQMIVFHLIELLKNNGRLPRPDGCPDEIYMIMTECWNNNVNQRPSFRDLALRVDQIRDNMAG
Sequence of JAK1 (P23458 whole entry): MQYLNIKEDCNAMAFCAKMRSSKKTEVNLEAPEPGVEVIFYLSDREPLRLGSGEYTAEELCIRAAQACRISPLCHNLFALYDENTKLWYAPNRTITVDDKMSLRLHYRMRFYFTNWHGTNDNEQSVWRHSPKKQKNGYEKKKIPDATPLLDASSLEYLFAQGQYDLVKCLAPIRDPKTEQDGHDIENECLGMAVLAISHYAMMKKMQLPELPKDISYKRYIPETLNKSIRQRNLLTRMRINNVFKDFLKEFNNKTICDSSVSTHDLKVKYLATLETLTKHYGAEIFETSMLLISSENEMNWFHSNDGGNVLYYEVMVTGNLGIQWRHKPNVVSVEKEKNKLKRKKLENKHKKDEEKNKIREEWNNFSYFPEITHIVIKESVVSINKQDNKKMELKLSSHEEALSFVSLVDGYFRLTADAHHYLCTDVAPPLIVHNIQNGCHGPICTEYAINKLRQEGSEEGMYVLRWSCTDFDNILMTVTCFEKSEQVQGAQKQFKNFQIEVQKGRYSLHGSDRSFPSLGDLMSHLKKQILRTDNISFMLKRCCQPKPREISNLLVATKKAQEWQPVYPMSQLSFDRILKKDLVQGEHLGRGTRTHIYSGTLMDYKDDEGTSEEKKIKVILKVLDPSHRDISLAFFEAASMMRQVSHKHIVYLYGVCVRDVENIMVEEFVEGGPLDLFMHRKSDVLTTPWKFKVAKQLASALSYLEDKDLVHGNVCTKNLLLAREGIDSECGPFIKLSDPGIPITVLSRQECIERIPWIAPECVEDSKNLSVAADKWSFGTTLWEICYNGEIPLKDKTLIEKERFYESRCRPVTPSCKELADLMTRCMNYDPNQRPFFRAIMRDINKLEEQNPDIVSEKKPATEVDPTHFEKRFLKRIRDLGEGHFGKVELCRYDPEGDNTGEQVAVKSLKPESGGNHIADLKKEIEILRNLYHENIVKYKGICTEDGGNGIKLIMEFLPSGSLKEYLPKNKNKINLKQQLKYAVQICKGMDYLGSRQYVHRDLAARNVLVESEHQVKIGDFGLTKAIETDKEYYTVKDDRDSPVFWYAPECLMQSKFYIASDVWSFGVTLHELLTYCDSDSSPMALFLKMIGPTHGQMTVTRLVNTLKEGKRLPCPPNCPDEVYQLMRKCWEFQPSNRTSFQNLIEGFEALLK

On to `CCc1cc(O)ccc1-c1ccc2c(-c3nc(C4=CCN(C(=O)CCNCCOC)C4)c[nH]3)n[nH]c2c1F` [Example 381], for which the “JAK2 pKi” value in assay [1] was “A (A represents a pKi value ≥10 (Ki≤0.1 nM))”. For the same compound, in assay [2], the Ki is 0.1 to 1 nM. Besides, in assay [3], the IC50 was 31.6 to 100 nM.

Take `CCc1cc(O)ccc1-c1ccc2c(-c3nc(C4=CCN(Cc5ccccc5)CC4)c[nH]3)n[nH]c2c1F` [Example 134]: the Ki in assay [1] and in assay [2] was 1 to 10 nM throughout. For the same compound, in assay [3], the IC50 is 100 to 316 nM.

`CCc1cc(O)ccc1-c1ccc2c(-c3nc(C4=CCN(Cc5cnoc5)CC4)c[nH]3)n[nH]c2c1F` [Example 326]: the Ki in assay [1] and in assay [2] was 0.1 to 1 nM throughout. In addition, the IC50 in assay [3] is 10 to 31.6 nM.

Turning to `CCc1cc(O)ccc1-c1ccc2c(-c3nc(C4=C(C(=O)OC)CNCC4)c[nH]3)n[nH]c2c1F` [Example 294], the “JAK2 pKi” value in assay [1] is on record as “A (A represents a pKi value ≥10 (Ki≤0.1 nM))”. For the same compound, in assay [2], the Ki is 0.1 to 1 nM. The IC50 in assay [3] is 3.16 to 10 nM.

`CCc1cc(O)ccc1-c1ccc2c(-c3nc(C4=CCN(C(=O)CN5CCN(C)CC5)C4)c[nH]3)n[nH]c2c1F` [Example 365]: in assay [1], the “JAK2 pKi” value is recorded as “A (A represents a pKi value ≥10 (Ki≤0.1 nM))”. For the same compound, the Ki in assay [2] is 0.1 to 1 nM. In addition, the IC50 in assay [3] was 31.6 to 100 nM.

On to `CCCCN1CC=C(c2c[nH]c(-c3n[nH]c4c(F)c(-c5ccc(O)cc5CC)ccc34)n2)C1` [Example 316], for which, in assay [1], the “JAK2 pKi” value is given as “A (A represents a pKi value ≥10 (Ki≤0.1 nM))”. Also, the “JAK1 pKi” value in assay [2] is “A (A represents a pKi value ≥10 (Ki≤0.1 nM))”. Moreover, in assay [3], the IC50 was 10 to 31.6 nM.

Consider `CCc1cc(O)ccc1-c1ccc2c(-c3nc(C4=CC[C@H](C)N(C[C@H](C)CO)C4)c[nH]3)n[nH]c2c1F` [Example 261], for which the Ki in assay [1] and in assay [2] was 0.1 to 1 nM each time. For the same compound, in assay [3], the IC50 was 10 to 31.6 nM.

With `CCc1cc(O)ccc1-c1ccc2c(-c3nc(C4=CCCN(CC5COC5)C4)c[nH]3)n[nH]c2c1F` [Example 68], the Ki in assay [1] and in assay [2] was 0.1 to 1 nM in each case. Further, the IC50 in assay [3] is 10 to 31.6 nM.

Regarding `CCc1cc(O)ccc1-c1ccc2c(-c3nc(C4=CCN(C(=O)CNC)C4)c[nH]3)n[nH]c2c1F` [Example 349], the “JAK2 pKi” value in assay [1] is given as “A (A represents a pKi value ≥10 (Ki≤0.1 nM))”. The Ki in assay [2] is 0.1 to 1 nM. For the same compound, in assay [3], the IC50 is 31.6 to 100 nM.

For the compound `CCc1cc(O)ccc1-c1ccc2c(-c3nc(C4=CCN(C(=O)CN5CCCC5)C4)c[nH]3)n[nH]c2c1F` [Example 351], the “JAK2 pKi” value in assay [1] was “A (A represents a pKi value ≥10 (Ki≤0.1 nM))”. In addition, in assay [2], the Ki is 0.1 to 1 nM. Also, the IC50 in assay [3] was 31.6 to 100 nM.

Regarding `CCc1cc(O)ccc1-c1ccc2c(-c3nc(C4=C[C@H](CC(=O)N(CC)CC)NC4)c[nH]3)n[nH]c2c1F` [Example 340], the “JAK2 pKi” value in assay [1] was “A (A represents a pKi value ≥10 (Ki≤0.1 nM))”. Also, the “JAK1 pKi” value in assay [2] is on record as “A (A represents a pKi value ≥10 (Ki≤0.1 nM))”. The IC50 in assay [3] is 10 to 31.6 nM.

With `Oc1ccc(-c2ccc3c(-c4nc(C5=CCNCC5)c[nH]4)n[nH]c3c2F)c(CC(F)(F)F)c1` [Example 387], the Ki in assay [1] is 0.1 to 1 nM; in assay [2] it was 1 to 10 nM. In addition, the IC50 in assay [3] is 31.6 to 100 nM.

With `CCc1cc(O)ccc1-c1ccc2c(-c3nc(C4=C[C@H](CO)N(CCCOC)C4)c[nH]3)n[nH]c2c1F` [Example 272], in assay [1], the “JAK2 pKi” value is given as “A (A represents a pKi value ≥10 (Ki≤0.1 nM))”. Also, the “JAK1 pKi” value in assay [2] is reported as “A (A represents a pKi value ≥10 (Ki≤0.1 nM))”. For the same compound, the IC50 in assay [3] was 3.16 to 10 nM.

As to `CCOC(=O)C1=C(c2c[nH]c(-c3n[nH]c4c(F)c(-c5ccc(O)cc5CC)ccc34)n2)CCNC1` [Example 323], the Ki in assay [1] and in assay [2] was 0.1 to 1 nM throughout. In assay [3], the IC50 was 10 to 31.6 nM.

Take `CCc1cc(O)ccc1-c1ccc2c(-c3nc(C4=CCN(CCC5(O)CC5)C4)c[nH]3)n[nH]c2c1F` [Example 320]: the “JAK2 pKi” value in assay [1] is recorded as “A (A represents a pKi value ≥10 (Ki≤0.1 nM))”. The Ki in assay [2] is 0.1 to 1 nM. For the same compound, the IC50 in assay [3] is 10 to 31.6 nM.

For `CCc1cc(O)ccc1-c1ccc2c(-c3nc(C4=CCNC(C(C)(C)C)C4)c[nH]3)n[nH]c2c1` (stereo not drawn) [Example 356], the Ki in assay [1] and in assay [2] was 0.1 to 1 nM throughout. Moreover, the IC50 in assay [3] was 31.6 to 100 nM.

For `CCc1cc(O)ccc1-c1ccc2c(-c3nc(C4=CC(C)CNC4)c[nH]3)n[nH]c2c1F` (stereo not drawn) [Example 327], the Ki in assay [1] and in assay [2] was 0.1 to 1 nM each time. Further, the IC50 in assay [3] was 10 to 31.6 nM.

On to `CCc1cc(O)ccc1-c1ccc2c(-c3nc(C4=CCN(CCNS(C)(=O)=O)C4)c[nH]3)n[nH]c2c1F` [Example 115], for which the “JAK2 pKi” value in assay [1] is “A (A represents a pKi value ≥10 (Ki≤0.1 nM))”. Also, the Ki in assay [2] was 0.1 to 1 nM. In addition, the IC50 in assay [3] was 10 to 31.6 nM.

Turning to `CCc1cc(O)ccc1-c1ccc2c(-c3nc(C4=CC5CN(C)CCN5CC4)c[nH]3)n[nH]c2c1F` (stereo not drawn) [Example 335], the Ki in assay [1] and in assay [2] was 0.1 to 1 nM throughout. Besides, the IC50 in assay [3] was 10 to 31.6 nM.

Consider `CCc1cc(O)ccc1-c1ccc2c(-c3nc(C4=CCCN(C(C)C)C4)c[nH]3)n[nH]c2c1` [Example 28], for which the Ki in assay [1] and in assay [2] was 0.1 to 1 nM in each case. For the same compound, in assay [3], the IC50 is 3.16 to 10 nM.

Turning to `CCc1cc(O)ccc1-c1ccc2c(-c3nc(C4=CCN(C5CCC(CO)CC5)C4)c[nH]3)n[nH]c2c1F` (stereo not drawn) [Example 331], the Ki in assay [1] is 0.1 to 1 nM. Further, the “JAK1 pKi” value in assay [2] is reported as “A (A represents a pKi value ≥10 (Ki≤0.1 nM))”. Besides, the IC50 in assay [3] is 10 to 31.6 nM.

As for `CCc1cc(O)ccc1-c1ccc2c(-c3nc(C4=CCN(C[C@H](C)CO)C4)c[nH]3)n[nH]c2c1F` [Example 332], the Ki in assay [1] and in assay [2] was 0.1 to 1 nM throughout. Moreover, the IC50 in assay [3] is 10 to 31.6 nM.

On to `CCc1cc(O)ccc1-c1ccc2c(-c3nc(C4=C[C@H]([C@H](C)O)NC4)c[nH]3)n[nH]c2c1F` [Example 310], for which the “JAK2 pKi” value in assay [1] was “A (A represents a pKi value ≥10 (Ki≤0.1 nM))”. Further, the Ki in assay [2] was 0.1 to 1 nM. Further, the IC50 in assay [3] is 10 to 31.6 nM.

Take `CCc1cc(O)ccc1-c1ccc2c(-c3nc(C4=CCN(CCC(C)(C)O)C4)c[nH]3)n[nH]c2c1F` [Example 55]: the “JAK2 pKi” value in assay [1] is given as “A (A represents a pKi value ≥10 (Ki≤0.1 nM))”. Further, the “JAK1 pKi” value in assay [2] was “A (A represents a pKi value ≥10 (Ki≤0.1 nM))”. Moreover, the IC50 in assay [3] is 3.16 to 10 nM.

`CCc1cc(O)ccc1-c1ccc2c(-c3nc(C4=CCN(CCNC(C)=O)C4)c[nH]3)n[nH]c2c1F` [Example 116]: the “JAK2 pKi” value in assay [1] was “A (A represents a pKi value ≥10 (Ki≤0.1 nM))”. For the same compound, the Ki in assay [2] is 0.1 to 1 nM. In addition, in assay [3], the IC50 was 10 to 31.6 nM.

With `CCc1cc(O)ccc1-c1ccc2c(-c3nc(C4=CCN(CCC5(O)CCC5)CC4)c[nH]3)n[nH]c2c1F` [Example 334], the Ki in assay [1] and in assay [2] was 0.1 to 1 nM each time. Moreover, the IC50 in assay [3] was 10 to 31.6 nM.

Take `CCc1cc(O)ccc1-c1ccc2c(-c3nc(C4=CCCN(CCNC(C)=O)C4)c[nH]3)n[nH]c2c1F` [Example 112]: the Ki in assay [1] and in assay [2] was 0.1 to 1 nM throughout. Moreover, the IC50 in assay [3] is 10 to 31.6 nM.

Regarding `CCc1cc(O)ccc1-c1ccc2c(-c3nc(C4=CCN(C[C@@H](C)CO)CC4)c[nH]3)n[nH]c2c1F` [Example 39], the Ki in assay [1] and in assay [2] was 0.1 to 1 nM in each case. In assay [3], the IC50 was 10 to 31.6 nM.
